Test results: patent US9750256B2, “Herbicidal isoxazolo[5,4-B]pyridines” (BASF SE, priority 2012, dated 2017)

Tests used:
Type in all cases: in vivo
[1] = test system: Polygonum convolvulus (wild buckwheat); assay: Greenhouse post-emergence treatment of Polygonum convolvulus; conditions: scale 0 (no damage) to 100 (complete destruction)
Excerpt: (§1) The culture containers used were plastic flowerpots containing loamy sand with approximately 3.0% of humus as the substrate. The seeds of the test plants were sown separately for each species.
(§2) For the post-emergence treatment, the test plants were first grown to a height of 3 to 15 cm, depending on the plant habit, and only then treated with the active ingredients which had been suspended or emulsified in water. For this purpose, the test plants were either sown directly and grown in the same containers, or they were first grown separately as seedlings and transplanted into the test containers a few days prior to treatment.
(§3) Depending on the species, the plants were kept at 10-25° C. or 20-35° C. The test period extended over 2 to 4 weeks. During this time, the plants were tended, and their response to the individual treatments was evaluated.
(§4) Evaluation was carried out using a scale from 0 to 100. 100 means no emergence of the plants, or complete destruction of at least the aerial moieties, and 0 means no damage, or normal course of growth. A good herbicidal activity is given at values of at least 80 and a very good herbicidal activity is given at values of at least 90.

[2] = test system: Amaranthus retroflexus L. (pigweed); assay: Greenhouse post-emergence treatment of Amaranthus retroflexus L.; conditions: scale 0 (no damage) to 100 (complete destruction)
Excerpt: as §1, §2, §3, §4

[3] = test system: Chenopodium album (fat-hen); assay: Greenhouse post-emergence treatment of Chenopodium album; conditions: scale 0 (no damage) to 100 (complete destruction)
Excerpt: as §1, §2, §3, §4

[4] = test system: Echinochloa crus-galli (barnyard grass); assay: Greenhouse post-emergence treatment of Echinochloa crus-galli; conditions: application rate 500 [kg/ha], scale 0 (no damage) to 100 (complete destruction)
Excerpt: as §1, §2, §3, §4

[5] = test system: Setaria viridis (green foxtail); assay: Greenhouse post-emergence treatment of Setaria viridis; conditions: application rate 500 [kg/ha], scale 0 (no damage) to 100 (complete destruction)
Excerpt: as §1, §2, §3, §4

SMILES | damage [%] ([2]; application rate 500 [g/ha]) | damage [%] ([3]; application rate 500 [kg/ha]) | other results
CCC(CCc1noc2nc(C3CC3)cc(C(=O)O)c12)=NO (mixture of isomers) [I.a.79] | 100% |  | damage [%] ([1]; application rate 500 [kg/ha]): 85%
CCC(CCc1noc2nc(C3CC3)cc(C(=O)O)c12)=NOC (mixture of isomers) [I.a.80] | 100% | 98% | damage [%] ([1]; application rate 500 [kg/ha]): 100%
C=CCOc1noc2nc(C3CC3)cc(C(=O)O)c12 [I.a.44] |  |  | damage [%] ([3]; application rate 1000 [kg/ha]): 100%; damage [%] ([2]; application rate 1000 [g/ha]): 100%
CON=CCCc1noc2nc(C3CC3)cc(C(=O)O)c12 [I.a.59] | 98% | 98% | 
O=C(NCC(F)(F)F)NN=CCCc1noc2nc(C3CC3)cc(C(=O)O)c12 [I.a.60] |  |  | damage [%] ([1]; application rate 500 [kg/ha]): 95%
O=C(O)c1cc(C2CC2)nc2onc(OCc3ccccc3)c12 [I.a.66] |  |  | damage [%] ([3]; application rate 1000 [kg/ha]): 100%; damage [%] ([2]; application rate 1000 [g/ha]): 100%
COCCOc1noc2nc(C3CC3)cc(C(=O)O)c12 [I.a.67] |  |  | damage [%] ([3]; application rate 1000 [kg/ha]): 100%; damage [%] ([1]; application rate 1000 [kg/ha]): 98%
CCC(=O)CCc1noc2nc(C3CC3)cc(C(=O)O)c12 [I.a.74] | 98% | 98% | 
CCC(CCc1noc2nc(C3CC3)cc(C(=O)O)c12)=NN [I.a.81] |  | 75% | 
O=C(O)c1cc(C2CC2)nc2onc(SCc3ccccc3)c12 [I.a.85] |  |  | damage [%] [4]: 70%
O=C(O)c1cc(C2CC2)nc2onc(SC3CCCCC3)c12 [I.a.86] | 95% |  | 
O=C(O)c1cc(C2CC2)nc2onc(SC3CCCC3)c12 [I.a.87] | 80% | 70% | damage [%] [4]: 75%
O=C(O)c1cc(C2CC2)nc2onc(OC3CCCCC3Cl)c12 (stereo not shown) [I.a.88] | 100% | 100% | 
O=C(O)c1cc(C2CC2)nc2onc(OC3COC3)c12 [I.a.89] | 70% | 70% | 
O=C(O)c1cc(C2CC2)nc2onc(OC3CCCC3)c12 [I.a.91] | 100% | 98% | 
O=C(O)c1cc(C2CC2)nc2onc(OC3CCC3)c12 [I.a.92] | 100% | 100% | damage [%] [5]: 85%
